From article PMC6037691, “Selenazolyl-hydrazones as Novel Selective MAO Inhibitors With Antiproliferative and Antioxidant Activities: Experimental and In-silico Studies” (Frontiers in Chemistry, 2018)

Experiments:
HBL-100 (breast) = experiment: Antiproliferative activity, HBL-100; format: cell-based, human; settings: Homo sapiens
Description: (§1) The in vitro antiproliferative activity of investigated compounds was evaluated against six human solid tumor cell lines: A549 (non-small cell lung), HBL-100, (breast), HeLa (cervix), SW1573 (non-small cell lung), as drug sensitive lines, T-47D (breast) and WiDr (colon) as drug resistant lines. These cell lines were a kind gift from Prof. G. J. Peters (VU Medical Center, Amsterdam, The Netherlands). For selectivity studies, the human fibroblasts BJ-hTert cell line was used, which was obtained from Dr. R. Freire (HUC, Tenerife, Canary Islands). Cells were kept in culture medium under standard conditions: RPMI 1640 medium, fetal bovine serum (5%), glutamine (2 mM), penicillin G (100 units/mL) and streptomycin (0.1 mg/mL). Antiproliferative tests were conducted as described earlier (Skehan et al., [1990]; Miranda et al., [2006]). Tested compounds were dissolved in DMSO at an initial concentration of 40 mM. DMSO was used as negative control (0.25% v/v). Antiproliferative activity of the compounds was expressed as GI50, which is the concentration of the compound that inhibits 50% of the culture growth.

[1] = tested on: A549 (non-small cell lung); experiment: Antiproliferative activity, A549; format: cell-based, human; settings: Homo sapiens
Description: as §1

[2] = tested on: human fibroblasts BJ-hTert cell line; experiment: Selectivity, non-transformed fibroblasts BJ-hTert; format: cell-based; settings: Fibroblast; BJ-hTert normal human cell line; concentrations up to 100 μM
Description: as §1

HeLa (cervix) = experiment: Antiproliferative activity, HeLa; format: cell-based, human; settings: Homo sapiens
Description: as §1

[3] = tested on: SW1573 (non-small cell lung); experiment: Antiproliferative activity, SW1573; format: cell-based, human; settings: Homo sapiens
Description: as §1

T-47D (breast) = experiment: Antiproliferative activity, T-47D; format: cell-based, human; settings: for GI50: Homo sapiens, T47D
Description: as §1

WiDr (colon) = experiment: Antiproliferative activity, WiDr; format: cell-based, human; settings: for GI50: Homo sapiens
Description: as §1

MAO A = target: T1, MAO A (Homo sapiens, UniProt P21397); experiment: MAO A inhibition, discontinuous fluorimetric kynuramine assay; format: biochemical; settings: for inhibition at 1 µM: 1 μM inhibitor, mean ± SD, n = 2, normalized to control
T1 construct: purchased Sigma-Aldrich
T1 sequence (P21397 1-527): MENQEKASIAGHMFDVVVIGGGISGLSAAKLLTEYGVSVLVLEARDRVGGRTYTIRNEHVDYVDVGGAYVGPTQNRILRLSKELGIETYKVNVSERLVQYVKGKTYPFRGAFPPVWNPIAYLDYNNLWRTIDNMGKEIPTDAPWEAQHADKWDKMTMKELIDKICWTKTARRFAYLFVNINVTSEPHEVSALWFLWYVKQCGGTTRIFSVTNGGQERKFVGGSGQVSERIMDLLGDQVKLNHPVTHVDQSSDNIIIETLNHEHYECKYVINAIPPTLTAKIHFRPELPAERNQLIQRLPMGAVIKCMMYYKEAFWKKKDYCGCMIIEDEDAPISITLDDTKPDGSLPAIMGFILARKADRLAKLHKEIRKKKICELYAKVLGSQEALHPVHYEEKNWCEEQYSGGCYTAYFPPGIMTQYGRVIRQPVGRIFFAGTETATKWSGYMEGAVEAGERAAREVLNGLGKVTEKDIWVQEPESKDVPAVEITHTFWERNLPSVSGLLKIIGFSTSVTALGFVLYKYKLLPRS
Description: (§2) MAO A and B inhibition capacities were investigated using a discontinuous fluorimetric assay (Meiring et al., [2013]) as described previously by using human recombinant membrane-bound MAO purchased from Sigma-Aldrich (Affini et al., [2018]). Briefly, remained enzyme activity with inhibitor, either 1 μM (one-point) or concentrations ranging from 0.0001 to 10 μM, was assessed in the presence of kynuramine [2 × KM, KM = 20 μM (MAO A), KM = 30 μM (MAO B)] in potassium phosphate buffer (pH 7.4). Reactions were started by addition of enzyme and stopped by manual addition of sodium hydroxide (2 N) after 20 min. Enzyme activity was determined by detection of 4-hydroxyquinoline (λEx = 320 nm, λEm = 405 nm). Data were analyzed using GraphPad PRISM 6. For one-point measurements data were calculated as percentage of control and expressed as mean ± standard deviation (%). […] Data were obtained from two (one-point measurements) or at least three (IC50 values) independent experiments, each performed in duplicates.

MAO B = target: T2, MAO B (Homo sapiens, UniProt P27338); experiment: MAO B inhibition, discontinuous fluorimetric kynuramine assay; format: biochemical; settings: for inhibition at 1 µM: 1 μM inhibitor, mean ± SD, n = 2, normalized to control
T2 construct: purchased Sigma-Aldrich
T2 sequence (P27338 1-520): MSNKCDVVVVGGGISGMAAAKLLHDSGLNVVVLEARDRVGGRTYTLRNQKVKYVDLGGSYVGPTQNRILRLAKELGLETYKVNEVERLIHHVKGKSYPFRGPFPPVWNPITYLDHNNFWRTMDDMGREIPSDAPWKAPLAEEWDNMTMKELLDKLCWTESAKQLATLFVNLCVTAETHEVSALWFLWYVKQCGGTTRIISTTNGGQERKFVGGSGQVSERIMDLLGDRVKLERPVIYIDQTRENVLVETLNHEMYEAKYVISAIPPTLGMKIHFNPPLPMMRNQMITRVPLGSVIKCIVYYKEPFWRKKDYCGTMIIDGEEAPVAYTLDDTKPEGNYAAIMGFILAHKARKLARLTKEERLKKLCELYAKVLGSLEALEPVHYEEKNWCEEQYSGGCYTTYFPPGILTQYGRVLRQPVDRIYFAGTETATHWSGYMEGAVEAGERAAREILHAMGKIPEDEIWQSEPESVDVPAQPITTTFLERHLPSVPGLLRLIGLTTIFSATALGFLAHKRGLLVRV
Description: as §2

[4] = tested on: six human solid tumor cell lines; experiment: Antiproliferative activity, panel as a whole; format: cell-based; parameters: key: moderate activity (GI50 = 10–100 μM); good activity (GI50 = 1–10 μM); inactive (GI50 > 100 μM)
Description: as §1

[5] = DPPH scavenging antioxidant assay; settings: concentration providing 50% of radicals scavenging activity; mean ± SD, n = 3
Description: The experiments were performed according to the literature protocol (Prior et al., [2005]). All tested compounds were initially dissolved in DMSO. The initial concentration of DPPH in methanol was 6.58 × 10^−5 M. A volume of 140 μL of DPPH solution was placed into a 96-well microplate, and then 10 μL solution of the tested compounds was added. Pure DMSO (10 μL) was used as the control. The absorbance at 517 nm was measured after 30 min period of incubation in the dark at 25°C. The Equation (1) was used for calculation of the scavenging activity:
(1) Scavenging activity (%)=Acontrol- Asample/Acontrol×100
where Asample and Acontrol refer to the absorbances at 517 nm of the sample and control, respectively. IC50 values were calculated from the graph of scavenging activity against the concentrations of the samples. IC50 represents the total antioxidant concentration of the sample which decreases the amount of the initial DPPH radical by 50%. Ascorbic acid (vitamin C) was used as positive control (concentration range 10–500 μM).

[6] = Total reducing power (TRP), modified potassium ferricyanide reduction method; settings: concentration providing 0.500 of absorbance at 700 nm; mean ± SD, n = 3
Description: The mixture containing 0.5 mL of phosphate buffer (0.2 M, pH = 6.6), 0.5 mL of K3[Fe(CN)6] (1%; w/v) and 0.5 mL of the samples (100–1,500 μM) was incubated at 50°C for 20 min. A volume of 0.5 mL of trichloroacetic acid (TCA, 10%; w/v), 0.5 mL of Milli-Q water and 0.5 mL of FeCl3 (0.1%; w/v) was added, followed by intensive vortexing. The absorbance of the resulting mixture was measured after 60 min at 700 nm using phosphate buffer as blank (Oyaizu, [1986]).
(§3) Volume of 0.4 mL of sample solution (50–1,000 μM) was mixed with 1.6 mL of reagent solution [0.6 M H2SO4, 28 mM Na3PO4, and 4 mM (NH4)2MoO4] and resulting mixtures were incubated at 95°C for 90 min. The cooled reaction mixtures were then centrifuged for 10 min (3,000 rpm). The absorbance of the supernatant solution was measured, 1 h after centrifugation, at 695 nm against reagent solution as blank. An increased absorbance in reading in both assays indicated increased antioxidant power, expressed as EC50 values (the sample concentration giving absorbance of 0.500 from the graph of absorbance at 700 nm or 695 nm against compound concentration) (Prieto et al., [1999]).

[7] = Total antioxidant capacity (TAOC), modified phosphomolybdenum method; settings: concentration providing 0.500 of absorbance at 695 nm; mean ± SD, n = 3
Description: as §3

[8] = mean, 95% CI, at least three experiments

Row | GI50 (T-47D (breast)) | SMILES | GI50 (HBL-100 (breast)) | GI50 [1] | GI50 [2] | GI50 (HeLa (cervix)) | GI50 [3] | GI50 (WiDr (colon)) | inhibition at 1 µM (MAO A) | inhibition at 1 µM (MAO B) | antiproliferative activity class against five cell lines ([4]; five cell lines of the six) | melting point | IC50 [5] | EC50 [6] | EC50 [7] | GI50 (T-47D (breast); T-47D) | IC50 (MAO A; [8]) | IC50 (MAO B; [8]) | antiproliferative activity class T-47D (T-47D (breast); T-47D) | antiproliferative activity class WiDr (WiDr (colon)) | antiproliferative activity class against all six cell lines ([4]; all six cell lines)
1 | 47 ± 18 µM | O=c1[nH]cc(F)c(=O)[nH]1 [5-fluorouracil, reference compound] | 4 ± 0.7 µM | > 100 µM | 5.5 ± 0.5 µM | 15 ± 4.7 µM | 4.6 ± 1.5 µM | 49 ± 6.7 µM | – | – | – | – | – | – | – | – | – | – | – | – | –
2 | – | Cc1ccc(-c2c[se]c(NN=Cc3ccccc3)n2)cc1 [Compound 1-Me, 2-(2-benzylidenehydrazinyl)-4-(p-tolyl)-1,3-selenazole] | > 100 µM | > 100 µM | > 100 µM | > 100 µM | 47 ± 3 µM | > 100 µM | 12.7 ± 3.5% | 23.4 ± 17.1% | inactive | 174 to 176 °C | 45.1 ± 6.53 µM | 966 ± 88 µM | 603 ± 61 µM | > 100 µM | – | – | – | – | –
3 | – | O=[N+]([O-])c1ccc(C=NNc2nc(-c3ccccc3)c[se]2)cc1 [Compound 4, 2-(2-(4-nitrobenzylidene)hydrazinyl)-4-phenyl-1,3-selenazole] | > 100 µM | 16 ± 3.5 µM | > 100 µM | 31 ± 8.5 µM | 23 ± 1.2 µM | 6.9 ± 1.3 µM | 71.9 ± 3.5% | 96.3 ± 0.5% | – | – | 44.8 ± 2.3 µM | 376 ± 51 µM | 433 ± 43 µM | 6.3 ± 1.1 µM | 0.258 µM | 0.073 µM | good activity (good activity (GI50 = 1–10 μM)) | good activity (good activity (GI50 = 1–10 μM)) | –
4 | – | Cc1ccc(-c2c[se]c(NN=Cc3ccc([N+](=O)[O-])cc3)n2)cc1 [Compound 4-Me, 2-(2-(4-nitrobenzylidene)hydrazinyl)-4-(p-tolyl)-1,3-selenazole] | > 100 µM | > 100 µM | > 100 µM | > 100 µM | > 100 µM | > 100 µM | 22.1 ± 2.1% | 48.1 ± 2.9% | – | 228 to 230 °C | 40.1 ± 4.7 µM | 495 ± 48 µM | 579 ± 51 µM | > 100 µM | – | – | – | – | inactive
5 | – | COc1ccc(-c2c[se]c(NN=Cc3ccc([N+](=O)[O-])cc3)n2)cc1 [Compound 4-OMe, 4-(4-methoxyphenyl)-2-(2-(4-nitrobenzylidene)hydrazinyl)-1,3-selenazole] | 47 ± 13 µM | 16 ± 5.3 µM | > 100 µM | 33 ± 10 µM | 26 ± 17 µM | > 100 µM | 49.4 ± 1.3% | 42.5 ± 19% | – | 208 to 211 °C | 79.2 ± 3.9 µM | 398 ± 44 µM | 645 ± 53 µM | 66 ± 17 µM | – | – | – | – | –
6 | – | O=C1O[C@H]([C@@H](O)CO)C(O)=C1O [vitamin C, Ascorbic acid, reference compound] | – | – | – | – | – | – | – | – | – | – | 79.1 ± 1.8 µM | 155 ± 39 µM | 140 ± 10 µM | – | – | – | – | – | –
